The record followed here is US20020049223A1, “Quinoline and naphthyridine carboxylic acid antibacterials” (priority 1999, published 2002).

Holding throughout (assay): Assay B: in vitro antibacterial activity, broth microdilution MIC (NCCLS)
Holding throughout (assay type): cell-based

Test [1] has as its system Enterococcus faecalis PIU 1967. Particulars: Table 2, Assay B, cation-adjusted Mueller Hinton broth, 35° C., 16 to 20 hr; code B = Enterococcus faecalis PIU 1967; unit assumed. The method, then:
(§1) Assay B. Determination of Biological Activity In Vitro Assay of Antibacterial Activity
(§2) Representative compounds of the invention were assayed in vitro for antibacterial activity. The susceptibilities of aerobic, nonfastidious species were determined visually by broth microdilution as described by the National Committee for Clinical Laboratory Standards (NCCLS) (National Committee for Clinical Laboratory Standards. 1997. Methods for dilution antimicrobial susceptibility tests for bacteria that grow aerobically. Approved standard M7-A4. National Committee for Clinical Laboratory Standards. Wayne, Pa.). In brief, serial two-fold dilutions of test compounds were made in cation-adjusted Mueller Hinton broth at two-times the final concentration. Inocula were prepared from overnight cultures of test strains. Tests were inoculated with a suspension of bacteria in Mueller Hinton broth to achieve a final density of approximately 5×10^5 CFU/mL. Tests were incubated at 35° C. in ambient air for 16 to 20 hr. Minimum Inhibitory Concentrations (MICs) were determined as the lowest drug concentration completely inhibiting growth. Ciprofloxacin was included as a control. For testing S. pneumoniae, the cation-adjusted Mueller Hinton broth was supplemented with 3% lysed horse blood and the incubation period was extended to 20 to 24 hr. For testing H. influenzae, the cation-adjusted Mueller Hinton broth was supplemented with 5 g/L yeast extract, […] and 15 mg/L NAD and incubation was extended to 20 to 24 hr..

The subject of another test is Escherichia coli JUHL. As to conditions: Table 2, Assay B, cation-adjusted Mueller Hinton broth, 35° C., 16 to 20 hr; code D = Escherichia coli JUHL; unit assumed. As to the method: as §1, §2
Test [2] relates to Haemophilus influenzae DILL AMP R. As to conditions: Table 2, Assay B, Mueller Hinton broth with yeast extract, hematin and NAD, 20 to 24 hr; code E = Haemophilus influenzae DILL AMP R; unit assumed. The method, then:
as §1, §2

Test [3] deals with Staphylococcus aureus ATCC 6538P. Particulars: Table 2, Assay B, cation-adjusted Mueller Hinton broth, 35° C., 16 to 20 hr; code A = Staphylococcus aureus ATCC 6538P; unit assumed. As to the method: as §1, §2
Test [4] has as its system Streptococcus pneumoniae ATCC 6303. Particulars: Table 2, Assay B, Mueller Hinton broth with 3% lysed horse blood, 20 to 24 hr; code F = Streptococcus pneumoniae ATCC 6303; unit assumed. As to the method:
as §1, §2

The molecule `COc1c(-c2cc3c(s2)CCCC3=NNC(N)=S)ccc2c(=O)c(C(=O)O)cn(C3CC3)c12` [Example 84, 7-((4E/Z)-4-[(aminocarbothioyl)hydrazono)-4,5,6,7-tetrahydro-1-benzothien-2-yl)-1-cyclopropyl-8-methoxy-4-oxo-1,4-dihydro-3-quinolinecarboxylic acid] came in with an Antibacterial Activity (MIC's), B in test [1] of 0.25 µg/mL. The same molecule had an Antibacterial Activity (MIC's), D with Escherichia coli JUHL of 1 µg/mL. Also, in test [2], the Antibacterial Activity (MIC's), E came to 0.125 µg/mL. In test [3], this molecule had an Antibacterial Activity (MIC's), A of 0.06 µg/mL. In test [4], this molecule yielded an Antibacterial Activity (MIC's), F of 0.25 µg/mL.

In test [1], `CNC(=S)NN=C1CCCc2sc(-c3ccc4c(=O)c(C(=O)O)cn(C5CC5)c4c3OC)cc21` [Example 85] showed an Antibacterial Activity (MIC's), B of 0.25 µg/mL. Besides, the Antibacterial Activity (MIC's), D with Escherichia coli JUHL is 0.5 µg/mL. For the same molecule, in test [2], the Antibacterial Activity (MIC's), E was found to be 0.125 µg/mL. In test [3], this molecule returned an Antibacterial Activity (MIC's), A of 0.03 µg/mL. For the same molecule, the Antibacterial Activity (MIC's), F in test [4] stood at 0.125 µg/mL.

`COc1c(-c2cc3c(s2)CCCC3NS(C)(=O)=O)ccc2c(=O)c(C(=O)O)cn(C3CC3)c12` (centres unmarked) [Example 88, 1-cyclopropyl-8-methoxy-7-(4-((methylsulfonyl)amino)-4,5,6,7-tetrahydro-1-benzothien-2-yl)-4-oxo-1,4-dihydro-3-quinolinecarboxylic acid]: the Antibacterial Activity (MIC's), B in test [1] came out at 0.25 µg/mL. For the same molecule, in the test on Escherichia coli JUHL, the Antibacterial Activity (MIC's), D came to 1 µg/mL. Also, the Antibacterial Activity (MIC's), E in test [2] was determined as 0.125 µg/mL. In test [3], this molecule had an Antibacterial Activity (MIC's), A of 0.015 µg/mL. This molecule also showed an Antibacterial Activity (MIC's), F in test [4] of 0.125 µg/mL.

Turning to `COc1c(-c2cc3c(s2)CCCC3n2cccc2)ccc2c(=O)c(C(=O)O)cn(C3CC3)c12` (centres unmarked) [Example 89, 1-cyclopropyl-8-methoxy-4-oxo-7-(4-(1H-pyrrol-1-yl)-4,5,6,7-tetrahydro-1-benzothien-2-yl)-1,4-dihydro-3-quinolinecarboxylic acid], the Antibacterial Activity (MIC's), B in test [1] is 1 µg/mL. The same molecule gave an Antibacterial Activity (MIC's), D with Escherichia coli JUHL of 2 µg/mL. For the same molecule, the Antibacterial Activity (MIC's), E in test [2] amounted to 0.5 µg/mL. In addition, in test [3], the Antibacterial Activity (MIC's), A was found to be 0.125 µg/mL. In test [4], this molecule had an Antibacterial Activity (MIC's), F of 1 µg/mL.

Consider `COc1c(-c2cc3c(s2)CCCC3=NN2CCN(C)CC2)ccc2c(=O)c(C(=O)O)cn(C3CC3)c12` [Example 92, 1-cyclopropyl-8-methoxy-7-((4E/Z)-4-((4-methyl-1-piperazinyl)imino)-4,5,6,7-tetrahydro-1-benzothien-2-yl)-4-oxo-1,4-dihydro-3-quinolinecarboxylic acid], for which the Antibacterial Activity (MIC's), B in test [1] came to 0.25 µg/mL. The same molecule came in with an Antibacterial Activity (MIC's), D in the test on Escherichia coli JUHL of 1 µg/mL. In addition, the Antibacterial Activity (MIC's), E in test [2] was found to be 0.06 µg/mL. In addition, in test [3], the Antibacterial Activity (MIC's), A turned out to be 0.03 µg/mL. For the same molecule, the Antibacterial Activity (MIC's), F in test [4] is 0.5 µg/mL.

`COc1c(-c2cc3c(s2)CCCC3NCc2cccnc2)ccc2c(=O)c(C(=O)O)cn(C3CC3)c12.Cl.Cl` (centres unmarked) [Example 94, 1-cyclopropyl-8-methoxy-4-oxo-7-(4-((3-pyridinylmethyl)amino)-4,5,6,7-tetrahydro-1-benzothien-2-yl)-1,4-dihydro-3-quinolinecarboxylic acid dihydrochloride] yielded an Antibacterial Activity (MIC's), B in test [1] of 1 µg/mL. The Antibacterial Activity (MIC's), D with Escherichia coli JUHL was 1 µg/mL. For the same molecule, in test [2], the Antibacterial Activity (MIC's), E was determined as 0.25 µg/mL. In test [3], this molecule displayed an Antibacterial Activity (MIC's), A of 0.125 µg/mL. The molecule further yielded an Antibacterial Activity (MIC's), F in test [4] of 0.5 µg/mL.

In test [1], `COc1c(-c2cc3c(s2)CCCC3=NNC(C)=O)ccc2c(=O)c(C(=O)O)cn(C3CC3)c12` [Example 96, 7-((4E/Z)-4-(acetylhydrazono)-4,5,6,7-tetrahydro-1-benzothien-2-yl)-1-cyclopropyl-8-methoxy-4-oxo-1,4-dihydro-3-quinolinecarboxylic acid] had an Antibacterial Activity (MIC's), B of 0.5 µg/mL. In addition, the Antibacterial Activity (MIC's), D in the test with Escherichia coli JUHL was 1 µg/mL. The Antibacterial Activity (MIC's), E in test [2] amounted to 0.03 µg/mL. In test [3], the Antibacterial Activity (MIC's), A was less than 0.004 µg/mL. Also, the Antibacterial Activity (MIC's), F in test [4] was 0.03 µg/mL.
